Test results as given in patent US10604514B2, “6-(5-membered heteroaryl)isoquinolin-3-yl carboxamides and preparation and use thereof” (Samumed, LLC, priority 2017, dated 2020).
Like-named read-outs stand apart in the source and are kept apart here.

Assays:
DYRK1A kinase = DYRK1A kinase (Homo sapiens (Human), UniProt Q13627); experiment: DYRK1A kinase assay (Ser/Thr 18 peptide Z-lyte, FRET); settings: DYRK1A kinase; method text calls the value IC50
[1] = system: LL29 cells (primary human fibroblasts derived from IPF patients), α-smooth muscle actin; experiment: Inhibition of fibrotic process: αSMA in TGF-β1-treated primary human fibroblasts from IPF patients (LL29 cells); format: cell-based; settings: Homo sapiens, Fibroblast; for EC50: 96 h, % αSMA-positive LL29 cells, TGF-β1 20 ng/mL, 4 days; for inhibition at 10 µM: read-out: percent inhibition at 10 μM
How it was run: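 Read-out is the percentage of αSMA-positive cells by high-content imaging, excluding SYTOX green-positive dead/apoptotic cells, normalized to TGF-β1-only wells on the same plate. LL29 cells were exposed for 4 days at 37 °C to 20 ng/mL TGF-β1 plus 11-point, 2-fold compound dilutions in 0.1% DMSO.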

[2] = system: SW480 colon carcinoma cells; experiment: Cell viability assay (CellTiter-Glo) in SW480 cells; format: cell-based, human;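 further: SW480 cells stably carrying an Sp5-luciferase TCF/LEF reporter, luminescent ATP signal as viability measure, DMSO-treated cells as control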
Description: Representative compounds were screened using the assay procedure to assess the effect on cell viability as described below.
SW480 colon carcinoma cells were transduced with a lentiviral vector expressing luciferase with a human Sp5 promoter consisting of a sequence of eight TCF/LEF binding sites. SW480 cells stably expressing the Sp5-Luc reporter gene and a hygromycin resistance gene were selected by treatment with 150 μg/mL of hygromycin for 7 days. These stably transduced SW480 cells were expanded in cell culture and used for all further screening activities. Each compound was dissolved in DMSO as a 10 mM stock and used to prepare compound source plates.
For the Cell Viability Assays, the cells were plated at 2,000 cells/well in 384-well plates with a DMEM medium containing 1% fetal bovine serum, and 1% Penicillin-Streptomycin and incubated for four days hours at 37° C. and 5% CO2. Eight replicates of DMSO-treated cells served as controls and cells treated with compound were performed in duplicate.
After incubation, 10 μL of CellTiter-Glo (Promega) was added to each well allowed to incubate for approximately 12 minutes.
Dose-response curves were generated and EC50 concentration values were calculated using non-linear regression curve fit in the GraphPad Prism (San Diego, Calif.) or Dotmatics' Studies Software (Bishops Stortford, UK).

[3] = system: Wnt activity (Sp5-Luc reporter in SW480 colon carcinoma cells); experiment: Wnt activity screening assay (Sp5-Luc reporter gene assay); format: cell-based, human
How it was run: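 Compounds at 10 points (1:3 steps, top 10 μM, 0.1% DMSO final) were incubated 36 to 48 h at 37° C with stable Sp5-Luc SW480 reporter cells in 1% FBS medium. Luciferase luminescence was then read and expressed relative to DMSO-only cells. Four-parameter variable-slope fitting yielded EC50 values.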

[4] = Homo sapiens, 96 h; cell viability, SW480 cells, four days, CellTiter-Glo
[5] = Homo sapiens; Sp5-Luc reporter, SW480 cells, 36 to 48 hours
[6] = Homo sapiens, SW480, read-out: percent inhibition at 10 μM
[7] = Homo sapiens, SW480; read-out: percent inhibition at 10 μM

| Structure (SMILES) | EC50 (DYRK1A kinase) [µM] | EC50 [1] [µM] | EC50 [2, 4] [µM] | EC50 [3, 5] [µM] | inhibition at 10 µM [2, 6] [%] | inhibition at 10 µM [3, 6] [%] | inhibition at 10 µM [1] [%] | inhibition at 10 µM [3, 7] [%] | inhibition at 10 µM [2, 7] [%] |
| --- | --- | --- | --- | --- | --- | --- | --- | --- | --- |
| Cc1nnc(-c2ccc3cnc(NC(=O)[C@H]4CC[C@H](N(C)C)CC4)cc3c2)s1 [Compound 22, trans-4-(Dimethylamino)-N-(6-(5-methyl-1,3,4-thiadiazol-2-yl)isoquinolin-3-yl)cyclohexane-1-carboxamide] | 0.005 | 0.602 | 2.05 | 0.434 |  |  |  |  |  |
| Cc1cn2c(n1)CN(C(=O)Nc1cc3cc(-c4nnc(C)s4)ccc3cn1)CC2 [Compound 58, 2-Methyl-N-(6-(5-methyl-1,3,4-thiadiazol-2-yl)isoquinolin-3-yl)-5,6-dihydroimidazo[1,2-a]pyrazine-7(8H)-carboxamide] | 0.006 | 0.788 | 0.547 | 1.46 |  |  |  |  |  |
| CN1CC2CCC(C1)N2C(=O)Nc1cc2cc(-c3cnn(C)c3)ccc2cn1 [Compound 61, 3-Methyl-N-(6-(1-methyl-1H-pyrazol-4-yl)isoquinolin-3-yl)-3,8-diazabicyclo[3.2.1]octane-8-carboxamide] | 0.007 | 2.77 | > 10 | > 10 | 13.1 | 22.4 |  |  |  |
| C[C@@H]1CN(C(=O)Nc2cc3cc(-c4cnn(C)c4)ccc3cn2)CCN1C [Compound 67, (R)-3,4-Dimethyl-N-(6-(1-methyl-1H-pyrazol-4-yl)isoquinolin-3-yl) piperazine-1-carboxamide] | 0.007 | > 10 | 3.99 | > 10 |  |  | 5.2 | 34.3 |  |
| COCCN[C@H]1CC[C@H](C(=O)Nc2cc3cc(-c4cnc(C)o4)ccc3cn2)CC1 [Compound 106, trans-4-((2-Methoxyethyl)amino)-N-(6-(2-methyloxazol-5-yl)isoquinolin-3-yl)cyclohexane-1-carboxamide] | 0.017 | 0.707 | 2.96 | 3.43 |  |  |  |  |  |
| Cc1nnc(-c2ccc3cnc(NC(=O)N4C5CCC4CN(C)C5)cc3c2)s1 [Compound 108, 3-Methyl-N-(6-(5-methyl-1,3,4-thiadiazol-2-yl)isoquinolin-3-yl)-3,8-diazabicyclo[3.2.1]octane-8-carboxamide] | 0.01 | > 10 | > 10 | > 10 | 7.8 | 19.9 | 18.2 |  |  |
| Cc1nnc(-c2ccc3cnc(NC(=O)N4[C@@H]5CC[C@H]4C[C@H](NCCC(F)(F)F)C5)cc3c2)s1 [Compound 153, (1R,5S)-N-(6-(5-Methyl-1,3,4-thiadiazol-2-yl)isoquinolin-3-yl)-3-exo-((3,3,3-trifluoropropyl)amino)-8-azabicyclo[3.2.1]octane-8-carboxamide] | 0.028 | > 10 | > 10 | > 10 | 0 | 3.4 | 9 |  |  |
| Cc1ncc(-c2ccc3cnc(NC(=O)[C@H]4CC[C@H](NCCF)CC4)cc3c2)o1 [Compound 155, trans-4-((2-fluoroethyl)amino)-N-(6-(2-methyloxazol-5-yl)isoquinolin-3-yl) cyclohexane-1-carboxamide] | 0.008 | 1.06 | 0.807 | 2.67 |  |  |  |  |  |
| Cc1nnc(-c2ccc3cnc(NC(=O)N4[C@@H]5CC[C@H]4C[C@@H](NCCC(F)(F)F)C5)cc3c2)s1 [Compound 195, (1R,5S)-cis-N-(6-(5-methyl-1,3,4-thiadiazol-2-yl)isoquinolin-3-yl)-3-((3,3,3-trifluoropropyl)amino)-8-azabicyclo[3.2.1]octane-8-carboxamide] | 0.005 | > 10 | > 10 | > 10 | 13 | 13.8 | 23.4 |  |  |
| COCCN[C@H]1CC[C@H](C(=O)Nc2cc3cc(-c4cnn(C)c4)ccc3cn2)CC1 [Compound 196, trans-4-((2-Methoxyethyl)amino)-N-(6-(1-methyl-1H-pyrazol-4-yl)isoquinolin-3-yl)cyclohexane-1-carboxamide] | 0.006 | 0.184 | 6.11 | 3.98 |  |  |  |  |  |
| Cc1nnc(-c2cc(F)c3cnc(NC(=O)N(C)C4CCN(C)CC4)cc3c2)s1 [Compound 227, 3-(8-Fluoro-6-(5-methyl-1,3,4-thiadiazol-2-yl)isoquinolin-3-yl)-1-methyl-1-(1-methylpiperidin-4-yl)urea] | 0.024 |  | > 10 | 3.65 |  |  |  |  | 1.9 |
| CN1CCC(N(C)C(=O)Nc2cc3cc(-c4cn(C)nn4)cc(F)c3cn2)CC1 [Compound 228, 3-(8-Fluoro-6-(1-methyl-1H-1,2,3-triazol-4-yl)isoquinolin-3-yl)-1-methyl-1-(1-methylpiperidin-4-yl)urea] | 0.012 | 9.98 | > 10 | > 10 |  |  |  | 46.3 |  |
| CN1CCC(N(C)C(=O)Nc2cc3cc(-c4cnn(C)c4)cc(F)c3cn2)CC1 [Compound 230, 3-(8-Fluoro-6-(1-methyl-1H-pyrazol-4-yl)isoquinolin-3-yl)-1-methyl-1-(1-methylpiperidin-4-yl)urea] | 0.021 | 6.33 | > 10 | > 10 |  |  |  | 0 | 31.9 |
| Cc1ncc(-c2ccc3cnc(NC(=O)N(C)C4CCN(C)CC4)cc3c2)o1 [Compound 231, 1-Methyl-3-(6-(2-methyloxazol-5-yl)isoquinolin-3-yl)-1-(1-methylpiperidin-4-yl)urea] | 0.016 | 2.95 | > 10 | 3.89 |  |  |  |  | 41.6 |
